Results: PubChem BioAssay (NCI)
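Protocol summary: plate cells (96-well), add compound at 5 concentrations, incubate 48 h, interpolate endpoints linearly. The concentration for 50% growth inhibition is given as GI50. The concentration for full growth arrest is given as TGI.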

Tests used:
Test in all cases: NCI tumour cell line growth inhibition, 48 h
MDA-N = test system: MDA-N
RXF-631 renal = test system: RXF-631 renal
DLD-1 colon = test system: DLD-1 colon
M19-MEL melanoma = test system: M19-MEL melanoma
DMS 114 small cell lung = test system: DMS 114 small cell lung
DMS 273 small cell lung = test system: DMS 273 small cell lung
LXFL 529 NSCLC = test system: LXFL 529 NSCLC
HOP-18 NSCLC = test system: HOP-18 NSCLC
KM20L2 colon = test system: KM20L2 colon

Row | Structure (SMILES) | TGI (MDA-N) [µM] | TGI (RXF-631 renal) [µM] | TGI (DLD-1 colon) [µM] | TGI (M19-MEL melanoma) [µM] | TGI (DMS 114 small cell lung) [µM] | TGI (DMS 273 small cell lung) [µM] | TGI (LXFL 529 NSCLC) [µM] | TGI (HOP-18 NSCLC) [µM] | TGI (KM20L2 colon) [µM] | GI50 (MDA-N) [µM] | GI50 (DLD-1 colon) [µM] | GI50 (HOP-18 NSCLC) [µM] | GI50 (M19-MEL melanoma) [µM] | GI50 (KM20L2 colon) [µM] | GI50 (DMS 114 small cell lung) [µM] | GI50 (DMS 273 small cell lung) [µM] | GI50 (LXFL 529 NSCLC) [µM]
1 | CCNCC(=O)Nc1ccc2c(c1)C(=O)c1ccc(NC(=O)CNCC)cc1C2=O | 18.9 |  |  |  |  |  |  |  |  |  |  |  |  |  |  |  | 
2 | CCOC(=O)C1CC(=O)C=C2CCCCC21 (stereo unspecified) |  | > 100 | > 100 | > 100 | > 100 | > 100 | > 100 |  |  |  |  |  |  |  |  |  | 
3 | O=C(O)c1cnc2c(ccc3[nH]cccc32)c1=O |  |  | > 100 | > 100 | > 100 | > 100 | > 100 | > 100 | > 100 |  |  |  |  |  |  |  | 
4 | O=S(O)O.O=S(O)O.[Co].[NH2-].[NH2-].[NH2-].[NH2-] | > 100 |  |  |  |  |  |  |  |  | > 100 |  |  |  |  |  |  | 
5 | CC1(C)C(=O)/C=C\C(=O)C(C)(C)C2=CC=C(O2)C(C)(C)C(=O)C(Br)C(Br)C(=O)C(C)(C)C2=CC=C1O2 (stereo unspecified) | > 100 | > 100 | 87.2 | > 100 | > 31.6 | > 100 | > 100 | > 100 | > 100 |  |  |  |  |  |  |  | 
6 | CCOC(=O)NC(=O)c1cn(CCSCCOC(=O)NCCCCCCNC(=O)OCCSCCn2cc(C(=O)NC(=O)OCC)c(=O)n(C)c2=O)c(=O)n(C)c1=O |  | 64 | > 100 | 51.3 |  |  | > 100 | 1.02 | > 100 |  |  |  |  |  |  |  | 
7 | O=CCCn1[nH]c(=O)ccc1=O |  |  | > 100 | > 100 | > 100 | > 100 |  |  | > 100 |  |  |  |  |  |  |  | 
8 | O=S1Nc2cccc(C(F)(F)F)c2S1 (stereo unspecified) |  |  | > 100 | > 100 | 83.2 | > 100 | > 100 | > 100 | > 100 |  |  |  |  |  |  |  | 
9 | COc1ccc(C2(Cl)C(Cl)(C(F)(F)F)C2(Cl)C(F)(F)F)cc1 (stereo unspecified) |  | 30.3 | 29.4 | 26.5 | 25 | 27.4 | 27.1 | 28.6 | 28.9 |  |  |  |  |  |  |  | 
10 | O/N=C1/CCCC/C1=C\c1ccc(Cl)c(Cl)c1 |  |  | > 100 | > 100 | 59.8 | 63.1 | 54.4 | 59.8 | 43.4 |  |  |  |  |  |  |  | 
11 | C[C@@H]1CC[C@@]2(C)OC(c3ccccc3)[C@H](CO)N2C1=O (stereo partly specified) |  |  | > 100 | > 100 | > 100 | > 100 |  | > 100 | > 100 |  |  |  |  |  |  |  | 
12 | C=CC12CCCCC1CC(C(=O)OC)=C(O)C2 (stereo unspecified) |  | > 100 | > 100 | > 100 | > 100 | > 100 | > 100 | > 100 | > 100 |  |  |  |  |  |  |  | 
13 | NC1=NN(c2ccccc2)C(=O)C1C(=O)C(=O)Nc1ccccc1 (stereo unspecified) |  |  | > 100 | > 100 | > 100 | > 100 | > 100 | > 100 | > 100 |  |  |  |  |  |  |  | 
14 | COc1ccc2cc3c4cc(OC)c(OC)cc4ccn3c2c1 |  |  | > 100 | > 100 | > 100 | > 100 | > 100 | > 100 |  |  |  |  |  |  |  |  | 
15 | CC(=O)OCC1OC(SC2=N/C(=C\c3ccc(Br)s3)C(=O)N2c2ccccc2)C(OC(C)=O)C(OC(C)=O)C1OC(C)=O (stereo unspecified) | > 100 |  |  |  |  |  |  |  |  |  |  |  |  |  |  |  | 
16 | CCCCCCCCCCCCCCCCc1c(C(=O)OC)nc(NC#N)[nH]c1=O |  | > 25 | > 25 | > 25 | > 25 |  | > 25 | > 25 | > 25 |  |  |  |  |  |  |  | 
17 | C=C(C)CC(C(=O)O)c1ccc(C)cc1 (stereo unspecified) |  |  | > 100 | > 100 | > 100 | > 100 |  | > 100 | > 100 |  |  |  |  |  |  |  | 
18 | c1cc[c]([Ge]([O]c2cccc3cccnc23)([c]2ccccc2)[c]2ccccc2)cc1 |  |  | 11.3 | 12.1 | 5.06 | 12.4 | 5.27 | 8.37 | 5.97 |  | 3.22 | 1.26 | 3.46 | 2.59 | 2.32 | 3.46 | 2.31
19 | C=CCCn1nc(-c2ccccc2)oc1=O |  |  | > 100 | > 100 |  | > 100 | > 100 | > 100 | > 100 |  |  |  |  |  |  |  | 
20 | O=C1CCCc2ccc([N+](=O)[O-])c(O)c21 |  |  | > 100 | > 100 | > 100 | > 100 | > 100 |  | > 100 |  |  |  |  |  |  |  | 
21 | O=CN/C=C/c1ccccc1 |  | > 100 | > 100 | > 100 |  | > 100 | > 100 | > 100 | > 100 |  |  |  |  |  |  |  | 
22 | CN(C)CC1(C)CC/C(=C\c2ccc(Cl)cc2)C1=O (stereo unspecified) |  |  | 85.7 | > 100 | 56.2 | 50.7 | 40.8 | > 100 | 35.7 |  |  |  |  |  |  |  | 
23 | CC(=O)N1c2ccccc2N(C(C)=O)C1c1ccc(C2N(C(C)=O)c3ccccc3N2C(C)=O)[nH]1 |  | > 100 |  | > 100 | > 100 | > 100 | > 100 |  | > 100 |  |  |  |  |  |  |  | 
24 | C[C@]12Cc3conc3C(O)=C1CC[C@@H]1C2CC[C@@]2(C)C1CC[C@@H]2O (stereo partly specified) |  |  |  | 74.5 |  | 25.2 | 33.5 | > 100 | > 100 |  |  |  |  |  |  |  | 
25 | Nc1nc(-c2cccnc2)cc(-c2cc(-c3cccnc3)nc(N)n2)n1 | > 100 |  |  |  |  |  |  |  |  |  |  |  |  |  |  |  | 
